Measured values from publication PMC4037345 (ChemMedChem, 2014).

What was measured:
OVCA429 = test: Resazurin-based viability assay, 48 hr treatment, OVCA429; assay type: cell-based, human; conditions: read-out: OVCA429 IC50
[1] = cited from earlier work
Albumin = Albumin (Homo sapiens, UniProt P02768); conditions: parent drugs; cited from earlier work
SKOV3 = test: Resazurin-based viability assay, 48 hr treatment, SKOV3; assay type: cell-based, human; conditions: read-out: SKOV3 IC50
[2] = parent drugs; cited from earlier work

Chain of Albumin (P02768 25-609, species assumed): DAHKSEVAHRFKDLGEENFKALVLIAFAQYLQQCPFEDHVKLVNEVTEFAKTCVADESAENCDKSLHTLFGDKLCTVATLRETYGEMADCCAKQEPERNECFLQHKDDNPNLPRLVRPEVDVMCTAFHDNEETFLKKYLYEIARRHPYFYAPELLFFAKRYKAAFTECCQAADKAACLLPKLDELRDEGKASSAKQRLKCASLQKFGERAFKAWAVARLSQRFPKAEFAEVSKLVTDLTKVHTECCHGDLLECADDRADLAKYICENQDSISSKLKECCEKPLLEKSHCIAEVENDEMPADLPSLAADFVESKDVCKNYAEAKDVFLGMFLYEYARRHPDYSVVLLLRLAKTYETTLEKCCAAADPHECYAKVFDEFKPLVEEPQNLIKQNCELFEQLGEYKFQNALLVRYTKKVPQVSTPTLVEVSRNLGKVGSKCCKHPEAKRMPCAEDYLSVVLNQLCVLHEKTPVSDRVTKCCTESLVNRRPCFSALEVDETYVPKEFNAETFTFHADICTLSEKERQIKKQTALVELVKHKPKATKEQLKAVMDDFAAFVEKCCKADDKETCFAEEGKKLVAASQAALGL

Compound | IC50 (OVCA429) [µM] | t1/2 initial (initial plasma half-life) [1] | % Albumin Binding (Albumin) | IC50 (SKOV3) [µM] | logP [2]
N.N.O=C([O-])C1(C(=O)[O-])CCC1.[Pt+2] [Carboplatin, carboplatin] | 210 ± 6 | 5[32-33] min | 40[29] % | 100 ± 6 | -2.3[30]
N.N.[Cl][Pt][Cl] [Cisplatin, cisplatin] | 15 ± 1 |  |  | 3 ± 0.3 | 
